How the values were obtained:
[1] = test system: mouse sensitized to oxazolone; assay: Mouse oxazolone screen: topical anti-inflammatory activity in the mouse sensitized to oxazolone; format: in vivo; settings: oxazolone challenge 100 μg/ear, ears weighed 24 hours later
Procedure: Compounds were tested for topical anti-inflammatory activity in a screen using the mouse sensitized to oxazolone, by a method modified from that of Dietrich and Hess [Int. Arch. Allergy, 38, 246 (1970)].
Mice were sensitized with oxazolone (2 mg in 20 μl EtOH) on a shaved area of the abdomen. 5 days later, the animals received 10 μl THF/MeOH (1:1 v/v) on the right ear and the test compound in the same solvent on the left ear. 1 hour later, the animals were challenged with 100 μg oxazolone in 10 μl acetone on each ear. Ear weights were measured 24 hours later. Percentage inhibition of the inflammatory swelling refers to the increase in weight of left ears (oxazolone plus compound in THF/MeOH) compared to untreated negative controls, as a proportion of the increase in weight of right ears (oxazolone plus THF/MeOH) only similar controls.

cantharidin mouse ear = assay: Mouse cantharidin screen: topical anti-inflammatory activity, cantharidin mouse ear; format: in vivo; settings: cantharidin 25 μg/ear, ears weighed after 24 hours
Procedure: Compounds were tested for topical anti-inflammatory activity in a cantharidin mouse ear screen, modified from Swingle, Reiter and Schwartzmiller [Arch. int. Pharmacodyn. 254, 168-176, 1976].
25 μg cantharidin (in 10 μl THF) was applied to both ears. Compound, in the same solvent, was applied at the same time, to the left ear only. Ears were weighed after 24 hours. Percentage inhibition of the acute inflammatory swelling refers to the increase in weight of left ears (cantharidin plus compound) compared to solvent-treated negative controls, as a proportion of the increase in weight of right ears (cantharidin alone) over similar controls.

[2] = dose 200 μg/ear 1 hour before challenge

Row | Structure (SMILES) | % Inhibition of the inflammatory swelling [1, 2] [%] | % Inhibition of the acute inflammatory swelling (cantharidin mouse ear; dose 500 μg/ear) [%] | % Inhibition of the acute inflammatory swelling (cantharidin mouse ear; dose 200 μg/ear) [%] | further results
1 | Cc1cc(NCCO)c2[nH]nc(Br)c2n1 [Compound 1, 3-Bromo-7-(2-hydroxyethylamino)-5-methyl-1H-pyrazolo-[4,3-b]pyridine] | 22 |  |  | 
2 | Cc1cc(NCCO)c2[nH]nc(C)c2n1 [Compound 2, 7-(2-Hydroxyethylamino)-3,5-dimethyl-1H-pyrazolo[4,3-b]pyridine] | 52 | 86 |  | 
3 | Cc1cc(NCCO)c2[nH]nc(-c3ccccc3)c2n1 [Compound 3, 7-(2-Hydroxyethylamino)-5-methyl-3-phenyl-1H-pyrazolo[4,3-b]pyridine] |  | 98 |  | % Inhibition of the inflammatory swelling ([1]; dose 500 μg/ear 1 hour before challenge): 52%
4 | C=CCNc1cc(C)nc2c(C)n[nH]c12 [Compound 4, 7-Allylamino-3,5-dimethyl-1H-pyrazolo[4,3-b]pyridine] |  |  | 83 | 
5 | C=CCNc1cc(C)nc2c(-c3ccccc3)n[nH]c12 [Compound 5, 7-Allylamino-5-methyl-3-phenyl-1H-pyrazolo[4,3-b]pyridine] |  | 90 |  | 
6 | Cc1cc(NCCO)c2[nH]nc(-c3ccc(Cl)cc3)c2n1 [Compound 6, 3-(4-Chlorophenyl)-7-(2-hydroxyethylamino)-5-methyl-1H-pyrazolo[4,3-b]pyridine] | 31 |  | 68 | 
7 | Cc1cc(NCC(C)C)c2[nH]nc(-c3ccccc3)c2n1 [Compound 7, 7-Isobutylamino-5-methyl-3-phenyl-1H-pyrazolo[4,3-b]pyridine] |  | 39 |  | 
8 | Cc1cc(NCCO)c2nn(-c3ccccc3)c(C)c2n1 [Compound 13, 7-(2-Hydroxyethylamino)-3,5-dimethyl-2-phenylpyrazolo[4,3-b]pyridine] |  |  | 43 | 

Source: patent US4833136A, “Pharmaceutically useful pyrazolo[4,3-b]pyridines” (Beecham Group p.l.c., priority 1986, dated 1989)
